Assay results taken from patent US20230210999A1, “TARGETED PROTEASE DEGRADATION (TED) PLATFORM” (EUBULUS BIOTHERAPEUTICS INC., priority 2020, published 2023).
Read-outs that look alike come from different tables or passages of the source.

Columns and labels:
Format in all cases: cell-based, human
MV4;11 cells = experiment: Cell proliferation experiment (Alamar blue, 72 h), MV4;11; conditions: read-out: Inhibitory activity IC50 on MV4;11
How it was run: (§1)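 Viability read by Alamar blue. 72 h treatment, 5-fold dilution series, duplicates; log-phase cells in 96-well plates; IC50 by curve fit.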

NCIH82 cells = experiment: Cell proliferation experiment, NCI-H82; conditions: read-out: Inhibitory activity IC50 on NCI-H82
How it was run: as §1

MDA-MB-231 cells = experiment: Cell proliferation experiment, MDA-MB-231; conditions: read-out: Inhibitory activity IC50 on MDA-MB-231
Method: (§2) Reagents: RPMI-1640 medium, McCoy's 5A medium, IMDM medium, MEM medium, L-15 medium, fetal bovine serum. Penicillin-Streptomycin double antibody, trypsin, etc., 2-mercaptoethanol, NEAA, pyruvate, etc.
(§3) The cells were cultured in conventional ways, and the cells should be passed at least 2 generations before plating. Cells at the logarithmic growth phase were collected, prepared into single cell suspensions and counted. The concentration of cells was adjusted to the desired concentration, and cells were inoculated into a 96-well cell culture plate at 100 μl per well. 100 μL of complete medium of the test compound were added to each well, set up 2 duplicate wells for each concentration, and diluted with a 5-fold gradient, and continued to culture for 72 h. All cells were subjected to IC50 test for corresponding samples. The experimental results are shown in Test Example 4.
(§4) The fluorescence intensity of each well was detected using the Alarm blue method, and IC50 was calculated.
(§5) IC50 was calculated according to the following formula:
(§6) Y=Max+(Min−Max)/[1+(X/IC50)×Slope]
(§7) wherein Min, Max and Slope represent the minimum, maximum and slope respectively.

PC-3 = experiment: Cell proliferation experiment, PC-3; conditions: read-out: Inhibitory activity IC50 on PC-3
Method: as §2, §3, §4, §5, §6, §7

[1] = Homo sapiens, MV4-11, MV4;11 cells
[2] = Homo sapiens, NCI-H82, NCI-H82 cells
[3] = Homo sapiens, MDA-MB-231, MDA-MB-231 cells

IC50 (MV4;11 cells; [1]) [µM] | IC50 (NCIH82 cells; [2]) [µM] | IC50 (MDA-MB-231 cells; [3]) [µM] | IC50 (PC-3; Homo sapiens, PC-3, PC-3 cells) [µM] | IC50 (MV4;11 cells; MV4;11 cells) [µM] | IC50 (NCIH82 cells; NCI-H82 cells) [µM] | IC50 (MDA-MB-231 cells; MDA-MB-231 cells) [µM] | IC50 (PC-3; PC-3 cells) [µM] | SMILES
0.01 to 0.1 | > 1 | > 1 | > 1 | – | – | – | – | CNC(=O)c1ccccc1Nc1nc(Nc2ccc(N3CCN(C(=O)N[C@H]4CC[C@@H](NCCCOCCC(=O)Nc5cccc6c5CN(C5CCC(=O)NC5=O)C6=O)CC4)CC3)cc2)ncc1Cl (stereo partly drawn) [UB-181092]
< 0.01 | 0.1 to 1 | 0.1 to 1 | 0.1 to 1 | – | – | – | – | CNC(=O)c1ccccc1Nc1nc(Nc2ccc(N3CCN(C(=O)N[C@H]4CC[C@@H](NCCCOCCC#Cc5ccc6c(c5)CN(C5CCC(=O)NC5=O)C6=O)CC4)CC3)cc2)ncc1Cl (stereo partly drawn) [UB-181084]
< 0.01 | 0.1 to 1 | > 1 | 0.1 to 1 | – | – | – | – | CNC(=O)c1ccccc1Nc1nc(Nc2ccc(N3CCN(C(=O)NCCCCOCCCCNCCC#Cc4ccc5c(c4)CN(C4CCC(=O)NC4=O)C5=O)CC3)cc2)ncc1Cl (stereo not drawn) [UB-181095]
0.01 to 0.1 | 0.1 to 1 | > 1 | > 1 | – | – | – | – | CNC(=O)c1ccccc1Nc1nc(Nc2ccc(N3CCN(C(=O)NCCCOCCNCCC#Cc4ccc5c(c4)CN(C4CCC(=O)NC4=O)C5=O)CC3)cc2)ncc1Cl (stereo not drawn) [UB-181110]
0.01 to 0.1 | 0.1 to 1 | > 1 | > 1 | – | – | – | – | CNC(=O)c1ccccc1Nc1nc(Nc2ccc(N3CCN(C(=O)NCCOCCOCC(N)COCCC(=O)Nc4ccc5c(c4)CN(C4CCC(=O)NC4=O)C5=O)CC3)cc2)ncc1Cl (stereo not drawn) [UB-181065]
0.01 to 0.1 | 0.1 to 1 | > 1 | 0.1 to 1 | – | – | – | – | N#Cc1ccccc1Nc1nc(Nc2ccc(N3CCN(C(=O)N[C@H]4CC[C@@H](NCCOCCC#Cc5ccc6c(c5)CN(C5CCC(=O)NC5=O)C6=O)CC4)CC3)cc2)ncc1Cl (stereo partly drawn) [UB-181133]
< 0.01 | 0.1 to 1 | > 1 | 0.1 to 1 | – | – | – | – | CNC(=O)c1ccccc1Nc1nc(Nc2ccc(N3CCN(C(=O)N[C@H]4CC[C@@H](NCCCOCCC#Cc5cccc6c5CN(C5CCC(=O)NC5=O)C6=O)CC4)CC3)cc2)ncc1Cl (stereo partly drawn) [UB-181087]
> 1 | > 1 | > 1 | > 1 | – | – | – | – | O=C1CCC(N2Cc3c(NC(=O)CCOCCOCCOCCN[C@H]4CC[C@@H](NC(=O)[C@]5(Cc6cccc(Nc7nccs7)n6)CC[C@@H](Oc6cccc(Cl)c6F)CC5)CC4)cccc3C2=O)C(=O)N1 (stereo partly drawn) [UB-181037]
< 0.01 | 0.1 to 1 | 0.1 to 1 | 0.1 to 1 | – | – | – | – | NC(=O)c1ccccc1Nc1nc(Nc2ccc(C3CCN(C(=O)NC4CCC(NCCOCCC#Cc5ccc6c(c5)CN(C5CCC(=O)NC5=O)C6=O)CC4)CC3)cc2)ncc1Cl (stereo not drawn) [UB-181152]
0.01 to 0.1 | > 1 | > 1 | > 1 | – | – | – | – | CNC(=O)c1ccccc1Nc1nc(Nc2ccc(N3CCN(C(=O)NCCCOCC(=O)COCC#Cc4cccc5c4CN(C4CCC(=O)NC4=O)C5=O)CC3)cc2)ncc1Cl (stereo not drawn) [UB-181083]
0.01 to 0.1 | 0.1 to 1 | > 1 | > 1 | – | – | – | – | CNC(=O)c1ccccc1Nc1nc(Nc2ccc(N3CCN(C(=O)NCCNCCOCCOCCC(=O)Nc4ccc5c(c4)CN(C4CCC(=O)NC4=O)C5=O)CC3)cc2)ncc1Cl (stereo not drawn) [UB-181044]
0.01 to 0.1 | > 1 | > 1 | > 1 | – | – | – | – | CNC(=O)c1ccccc1Nc1nc(Nc2ccc(N3CCN(C(=O)NCCOCCNCC(=O)Nc4ccc5c(c4)CN(C4CCC(=O)NC4=O)C5=O)CC3)cc2)ncc1Cl (stereo not drawn) [UB-181069]
0.01 to 0.1 | > 1 | > 1 | > 1 | – | – | – | – | CNC(=O)c1ccccc1Nc1nc(Nc2ccc(N3CCN(C(=O)NCCOCCNCCC(=O)Nc4cccc5c4CN(C4CCC(=O)NC4=O)C5=O)CC3)cc2)ncc1Cl (stereo not drawn) [UB-181066]
< 0.01 | 0.1 to 1 | > 1 | > 1 | – | – | – | – | CNC(=O)c1ccccc1Nc1nc(Nc2ccc(N3CCN(C(=O)NCCCOCCCNCCC#Cc4ccc5c(c4)CN(C4CCC(=O)NC4=O)C5=O)CC3)cc2)ncc1Cl (stereo not drawn) [UB-181094]
0.01 to 0.1 | 0.1 to 1 | > 1 | > 1 | – | – | – | – | CNC(=O)c1ccccc1Nc1nc(Nc2ccc(N3CCN(C(=O)NCCOCCOCCNCCC(=O)Nc4ccc5c(c4)CN(C4CCC(=O)NC4=O)C5=O)CC3)cc2)ncc1Cl (stereo not drawn) [UB-181039]
0.1 to 1 | > 1 | > 1 | > 1 | – | – | – | – | CNC(=O)c1ncccc1Nc1nc(Nc2ccc(N3CCN(C(=O)N[C@H]4CC[C@@H](NCCOCCC#Cc5cccc6c5CN(C5CCC(=O)NC5=O)C6=O)CC4)CC3)cc2)ncc1C#N (stereo partly drawn) [UB-181116]

IC50 (MV4;11 cells; [1]) [µM] | IC50 (NCIH82 cells; [2]) [µM] | IC50 (MDA-MB-231 cells; [3]) [µM] | IC50 (PC-3; Homo sapiens, PC-3, PC-3 cells) [µM] | IC50 (MV4;11 cells; MV4;11 cells) [µM] | IC50 (NCIH82 cells; NCI-H82 cells) [µM] | IC50 (MDA-MB-231 cells; MDA-MB-231 cells) [µM] | IC50 (PC-3; PC-3 cells) [µM] | SMILES
– | – | – | – | < 0.01 | 0.1 to 1 | > 1 | > 1 | CNC(=O)c1ccccc1Nc1nc(Nc2ccc(N3CCN(C(=O)NCCCCOCCCNCCC(=O)Nc4ccc5c(c4)CN(C4CCC(=O)NC4=O)C5=O)CC3)cc2)ncc1Cl (stereo not drawn) [UB-181046]
< 0.01 | 0.1 to 1 | > 1 | > 1 | – | – | – | – | CC(=O)c1ccccc1Nc1nc(Nc2ccc(C3CCN(C(=O)N[C@H]4CC[C@H](NCCOCCC#Cc5ccc6c(c5)CN(C5CCC(=O)NC5=O)C6=O)CC4)CC3)cc2)ncc1Cl (stereo partly drawn) [UB-181151]
– | – | – | – | < 0.01 | 0.1 to 1 | 0.1 to 1 | 0.01 to 0.1 | CNC(=O)c1ccccc1Nc1nc(Nc2ccc(N3CCN(C(=O)N[C@H]4CC[C@@H](NCCOCCC#Cc5cccc6c5CN(C5CCC(=O)NC5=O)C6=O)CC4)CC3)cc2)ncc1Cl (stereo partly drawn) [UB-181120]
> 1 | > 1 | > 1 | > 1 | – | – | – | – | O=C1CCC(N2Cc3cc(NC(=O)CCOCCNCCOCCn4cc(-c5ccc(Nc6ncc7c(n6)-c6ccc(Cl)cc6C(c6c(F)cccc6F)=NC7)cc5)nn4)ccc3C2=O)C(=O)N1 (stereo not drawn) [UB-181041]
> 1 | 0.1 to 1 | > 1 | > 1 | – | – | – | – | O=C1CCC(N2Cc3cc(NC(=O)CCOCCOCCOCC(O)Cn4cc(-c5ccc(Nc6ncc7c(n6)-c6ccc(Cl)cc6C(c6c(F)cccc6F)=NC7)cc5)nn4)ccc3C2=O)C(=O)N1 (stereo not drawn) [UB-181075]
< 0.01 | 0.1 to 1 | – | – | – | – | > 1 | > 1 | CNC(=O)c1ccccc1Nc1nc(Nc2ccc(N3CCN(C(=O)N[C@H]4CC[C@@H](NCCOCCC#Cc5ccc6c(c5)CN(C5CCC(=O)NC5=O)C6=O)CC4)CC3)cc2)ncc1C#N (stereo partly drawn) [UB-181114]
0.01 to 0.1 | 0.1 to 1 | > 1 | > 1 | – | – | – | – | CNC(=O)c1ccccc1Nc1nc(Nc2ccc(N3CCN(C(=O)NCCNCCC(=O)Nc4cccc5c4CN(C4CCC(=O)NC4=O)C5=O)CC3)cc2)ncc1Cl (stereo not drawn) [UB-181053]
< 0.01 | 0.01 to 0.1 | > 1 | 0.1 to 1 | – | – | – | – | CNC(=O)c1ccccc1Nc1nc(Nc2ccc(N3CCN(C(=O)NCCCOCCNCCC#Cc4cccc5c4CN(C4CCC(=O)NC4=O)C5=O)CC3)cc2)ncc1Cl (stereo not drawn) [UB-181111]
< 0.01 | 0.1 to 1 | 0.1 to 1 | 0.1 to 1 | – | – | – | – | NC(=O)c1ccccc1Nc1nc(Nc2ccc(C3CCN(C(=O)N[C@H]4CC[C@H](NCCOCCC#Cc5cccc6c5CN(C5CCC(=O)NC5=O)C6=O)CC4)CC3)cc2)ncc1Cl (stereo partly drawn) [UB-181147]
0.01 to 0.1 | 0.01 to 0.1 | > 1 | > 1 | – | – | – | – | CNC(=O)c1ccccc1Nc1nc(Nc2ccc(N3CCN(C(=O)NCCOCCOCCOCCC(=O)Nc4ccc5c(c4)CN(C4CCC(=O)NC4=O)C5=O)CC3)cc2)ncc1Cl (stereo not drawn) [UB-181060]
0.01 to 0.1 | > 1 | > 1 | > 1 | – | – | – | – | CNC(=O)c1ccccc1Nc1nc(Nc2ccc(N3CCN(C(=O)NCC(O)COCCOCCOCCC(=O)Nc4ccc5c(c4)CN(C4CCC(=O)NC4=O)C5=O)CC3)cc2)ncc1Cl (stereo not drawn) [UB-181081]
0.01 to 0.1 | > 1 | > 1 | > 1 | – | – | – | – | N#Cc1ccccc1Nc1nc(Nc2ccc(C3CCN(C(=O)N[C@H]4CC[C@@H](NCCOCCC#Cc5ccc6c(c5)CN(C5CCC(=O)NC5=O)C6=O)CC4)CC3)cc2)ncc1Cl (stereo partly drawn) [UB-181135]
< 0.01 | > 1 | > 1 | > 1 | – | – | – | – | CC(=O)c1ccccc1Nc1nc(Nc2ccc(C3CCN(C(=O)N[C@H]4CC[C@H](NCCOCCC#Cc5cccc6c5CN(C5CCC(=O)NC5=O)C6=O)CC4)CC3)cc2)ncc1Cl (stereo partly drawn) [UB-181146]
0.01 to 0.1 | > 1 | > 1 | 0.1 to 1 | – | – | – | – | CNC(=O)c1ccccc1Nc1nc(Nc2ccc(N3CCN(C(=O)NC4CCC(NCCOCCC#Cc5ccc6c(c5)CN(C5CCC(=O)NC5=O)C6=O)CC4)CC3)cc2)ncc1C#N (stereo not drawn) [UB-181125]
< 0.01 | – | 0.1 to 1 | 0.1 to 1 | – | – | – | – | CC[C@@H]1C(=O)N(C)c2cnc(Nc3ccc(NC(=O)N[C@H]4CC[C@H](NCCOCCC#Cc5cccc6c5CN(C5CCC(=O)NC5=O)C6=O)CC4)cc3)nc2N1C1CCCC1 (stereo partly drawn) [UB-181126]
